# The source made the active and inactive calls. Rule as the data show it, for most assays here: actives have a measured EC50 and inactives only a lower limit.
# Molecular target: Luciferin 4-monooxygenase (Photinus pyralis, UniProt P08659)
# Assay: inhibition of purified Photinus pyralis luciferase – biochemical, luminescence, dose response (AID 1891)
# Settings: not given
# Chain of Luciferin 4-monooxygenase (P08659 whole entry): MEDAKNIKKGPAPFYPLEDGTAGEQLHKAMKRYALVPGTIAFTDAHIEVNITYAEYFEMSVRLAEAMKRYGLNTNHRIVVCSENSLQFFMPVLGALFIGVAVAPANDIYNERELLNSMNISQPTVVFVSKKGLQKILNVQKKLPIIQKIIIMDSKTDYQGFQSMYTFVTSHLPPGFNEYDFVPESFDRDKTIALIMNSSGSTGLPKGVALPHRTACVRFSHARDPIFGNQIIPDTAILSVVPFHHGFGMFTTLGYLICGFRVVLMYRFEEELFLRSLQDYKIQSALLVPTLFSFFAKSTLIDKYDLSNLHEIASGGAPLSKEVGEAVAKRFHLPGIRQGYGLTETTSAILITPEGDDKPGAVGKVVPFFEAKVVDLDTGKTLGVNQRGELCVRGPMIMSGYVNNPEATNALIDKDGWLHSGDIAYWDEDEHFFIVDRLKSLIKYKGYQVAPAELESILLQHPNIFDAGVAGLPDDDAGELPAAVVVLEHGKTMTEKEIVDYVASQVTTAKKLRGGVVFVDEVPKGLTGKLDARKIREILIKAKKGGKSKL
row,Structure (SMILES),EC50
1,COc1ccccc1C(=O)COC(=O)/C=C/c1ccccc1,> 112 µM (not active)
2,COCCNC(=O)c1cn(Cc2c(F)cccc2Cl)nn1,> 112 µM (not active)
3,COc1cc(NC(=S)N2CCN(C/C=C/c3ccccc3)CC2)cc(OC)c1,> 112 µM (not active)
4,CCOC(=O)C1=NN(C(=O)Nc2ccc(OC)cc2)C2C(=O)N(c3cccc(C(F)(F)F)c3)C(=O)C12 (configuration not stated),> 112 µM (not active)
5,c1ccc2[nH]c(-c3nc4ccccc4[nH]3)nc2c1,2.11 µM (active)
6,O=C1COc2ccc(C(=O)COC(=O)c3cc(S(=O)(=O)N4CCOCC4)ccc3F)cc2N1,> 112 µM (not active)
7,CCN=C(S)NNC(=O)c1cc(-c2cccc(OC)c2)nc2ccccc12,0.259 µM (active)
8,Cc1cc(NC(=O)Cn2nc(C)c([N+](=O)[O-])c2C)no1,> 112 µM (not active)
9,COc1cc(C2c3c(-c4cc(Cl)c(C)cc4O)n[nH]c3C(=O)N2Cc2cccnc2)ccc1O (configuration not stated),> 112 µM (not active)
10,CC1CC(OC(=O)CN2CCCCC2)CC(C)(C)C1 (configuration not stated),> 112 µM (not active)
11,COc1ccc(Cl)cc1NC(=O)c1cc(S(=O)(=O)N2CCCC2)cn1C,> 112 µM (not active)
12,Cc1ccc(NS(=O)(=O)c2cccc(C(=O)N3CCCCCCC3)c2)cc1,> 112 µM (not active)

# Molecular target: T1, Corticotropin-releasing factor receptor 2/Corticotropin-releasing factor-binding protein (Homo sapiens, UniProt P24387+Q13324)
# T1 sequence (Q13324 whole entry): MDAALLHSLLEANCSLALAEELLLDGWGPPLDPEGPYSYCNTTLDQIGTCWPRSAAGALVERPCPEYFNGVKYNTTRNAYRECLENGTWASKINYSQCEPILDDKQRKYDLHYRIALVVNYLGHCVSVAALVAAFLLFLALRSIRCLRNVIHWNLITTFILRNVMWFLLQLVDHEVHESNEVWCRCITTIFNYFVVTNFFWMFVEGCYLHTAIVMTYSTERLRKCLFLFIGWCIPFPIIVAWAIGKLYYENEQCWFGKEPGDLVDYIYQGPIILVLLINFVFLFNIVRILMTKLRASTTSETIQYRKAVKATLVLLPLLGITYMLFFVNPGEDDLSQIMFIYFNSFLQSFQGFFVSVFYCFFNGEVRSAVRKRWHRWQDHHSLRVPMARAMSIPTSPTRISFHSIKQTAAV
# T1 sequence (P24387 whole entry): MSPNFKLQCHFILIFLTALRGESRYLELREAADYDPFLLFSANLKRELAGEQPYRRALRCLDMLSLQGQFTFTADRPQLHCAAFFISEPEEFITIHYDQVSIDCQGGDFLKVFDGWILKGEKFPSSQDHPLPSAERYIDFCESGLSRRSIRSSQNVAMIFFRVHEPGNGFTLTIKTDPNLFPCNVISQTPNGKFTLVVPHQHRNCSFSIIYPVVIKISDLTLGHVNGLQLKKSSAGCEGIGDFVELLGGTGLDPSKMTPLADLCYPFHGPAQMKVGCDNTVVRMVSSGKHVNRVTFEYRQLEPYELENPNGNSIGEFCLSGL
# Assay: Dose Response confirmation of uHTS hits for small molecule antagonists of the CRF-binding protein and CRF-R2 receptor complex.
# Assay type: functional
# Settings: read-out: IC50_Mean
row,Structure (SMILES),IC50
1,CC1=C(C#N)C(=O)NC(C)(C)C1,> 47.1 µM (inactive)
2,Cc1onc(-c2ccccc2)c1CNC(=O)CN1C(=O)c2ccccc2C1=O,> 47.1 µM (inactive)
3,CC12CC3CC(C)(C1)CC(C(=O)NNC(=O)c1ccncc1)(C3)C2,> 47.1 µM (inactive)
4,Nc1ccccc1SC1CC(=O)N(c2ccc3c(c2)OCO3)C1=O (configuration not stated),> 47.1 µM (inactive)
5,CC(C)(CSc1ncccn1)NS(=O)(=O)c1ccccc1,> 47.1 µM (inactive)
6,CCOc1cc2[nH]c(=O)n(Cc3ccccc3)c(=O)c2cc1OCC,> 47.1 µM (inactive)
7,COc1ccc(N(CC(=O)N/N=C/c2ccc3c(c2)OCO3)S(=O)(=O)c2ccc(NC(C)=O)cc2)cc1,> 47.1 µM (inactive)
8,CSc1ccccc1C(=O)N1CCN(S(=O)(=O)c2sc(C(=O)O)c(C)c2C(=O)O)CC1,> 47.1 µM (inactive)
9,O=C(COc1cccc(Cl)c1)Nc1ccc(N2CCOCC2)cc1,> 47.1 µM (inactive)
10,Cc1c(C(c2ccc(N(C)C)cc2)c2c(C)n(C)n(-c3ccccc3)c2=O)c(=O)n(-c2ccccc2)n1C,> 47.1 µM (inactive)
11,Cc1ccc2c(cnn2C(=O)CCC(=O)N2CCCCC2)c1,> 47.1 µM (inactive)
12,COc1ccccc1NS(=O)(=O)c1cc(C(=O)N2CCCC2)ccc1F,> 47.1 µM (inactive)
13,COCCN1CCC(CO)C1 (configuration not stated),> 47.1 µM (inactive)
14,Cc1cc(C)cc(NC(=O)c2ccc(N3C(=O)C4CCCCC4C3=O)cc2)c1 (configuration not stated),> 47.1 µM (inactive)
15,Cc1c(C(=O)Nc2cccc([N+](=O)[O-])c2)sc2ncn(CC(=O)N3CCOCC3)c(=O)c12,> 47.1 µM (inactive)
16,CC(=O)c1cc(F)c(N2CCN(C(=O)C(C)(C)C)CC2)cc1C,> 47.1 µM (inactive)
17,O=C(CCN1CCCC1=O)NC1CCCc2c1cnn2-c1ccccc1F (configuration not stated),> 47.1 µM (inactive)

# Test system: INS1
# Assay: INS-1E survival protection against cytokine death – cell-based, luminescence, retest, dose response (AID 449756);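 also: cell death triggered by IL-1 beta plus TNF-alpha plus IFN-gamma mixture; protective hits raise ATP signal compared with cytokine alone wells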
# Assay type: functional
# Settings: Rattus norvegicus
row,Structure (SMILES),AC50
1,Fc1ccc2nc(Nc3nc4c(F)cc(F)cc4s3)sc2c1,7.02 µM (active)
2,CCN(CC)c1ccc(C(=O)N/N=C/c2ccccc2OC(F)F)cc1,5.97 µM (active)
3,CC[C@]1(c2ccccc2OC)ON(c2ccccc2C(F)(F)F)C1=O,1.75 µM (active)
4,O=C(/C=C/c1ccc(-c2ccccc2)cc1)NCc1cccnc1,7.49 µM (active)

# Test system: not listed separately
# Assay: viability of uninfected HEp-2 cells – cell-based, HTS, cytotoxicity control for RSV inhibitor project, dose response (AID 2410)
# Assay type: functional
# Settings: human respiratory syncytial virus
row,Structure (SMILES),CC50
1,COC(=O)C(C)N(C(=O)c1cccc2ccccc12)c1c(C)cccc1C (configuration not stated),19.9 µM (active)
2,OC(COc1cccc2ccccc12)CN1CCN(c2ccc(Cl)cc2)CC1 (configuration not stated),12 µM (active)
3,C/C(=N\NC1=NC(=O)C(CC(=O)Nc2ccc(C)c(Cl)c2)S1)C(C)(C)C (configuration not stated),13.8 µM (active)
4,CCn1c(SCC(=O)N2CCN(c3cccc(Cl)c3)CC2)nc2ccccc2c1=O,47.5 µM (active)
5,CCN1N=C(c2cc(Cl)sc2Cl)CSC1=O,> 50 µM (active)
6,COc1ccc(-c2csc(NC(=O)CS(=O)(=O)c3ccccc3)n2)cc1,20.4 µM (active)
7,Cc1occc1C(=O)N/N=C/C(Br)=C/c1ccccc1,32 µM (active)
8,Cc1cc(/C=C(/C#N)c2nc3ccccc3[nH]2)c(C)n1-c1cccc([N+](=O)[O-])c1,22.6 µM (active)
9,CCC(=O)Nc1cccc(-c2csc(-c3ccccc3)n2)c1,26.4 µM (active)
10,COCCn1c(N)c(C(=O)Nc2sc3c(c2C(=O)OC)CCCC3)c2nc3ccccc3nc21,> 50 µM (active)
11,CCCC(=O)Nc1ccc2c(c1)Cc1ccccc1-2,> 50 µM (active)

# Molecular target: T2, Streptokinase A (Streptococcus pyogenes serotype M1, UniProt P10520)
# T2 sequence (P10520 whole entry): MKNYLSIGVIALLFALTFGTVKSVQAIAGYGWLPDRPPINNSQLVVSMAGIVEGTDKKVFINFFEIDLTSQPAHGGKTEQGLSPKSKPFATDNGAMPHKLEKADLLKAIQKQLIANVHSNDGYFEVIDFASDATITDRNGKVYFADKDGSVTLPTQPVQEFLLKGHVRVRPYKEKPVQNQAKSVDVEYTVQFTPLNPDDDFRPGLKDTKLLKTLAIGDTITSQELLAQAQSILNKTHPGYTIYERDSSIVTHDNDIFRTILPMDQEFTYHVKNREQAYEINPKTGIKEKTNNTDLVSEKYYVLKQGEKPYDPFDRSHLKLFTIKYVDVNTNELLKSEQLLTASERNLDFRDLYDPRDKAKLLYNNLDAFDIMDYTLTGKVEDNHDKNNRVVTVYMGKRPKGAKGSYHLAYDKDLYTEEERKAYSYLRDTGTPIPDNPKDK
# Assay: viability-normalized secreted streptokinase activity reduction – plasminogen activation absorbance, OD405, dose response (AID 1914);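 also: secreted streptokinase activity via plasminogen activation per viability signal from cell pellet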
# Assay type: functional, Streptococcus pyogenes M1 GAS
# Settings: not given
row,Structure (SMILES),EC50
1,OC(COc1cccc2ccccc12)CN1CCN(c2ccc(Cl)cc2)CC1 (configuration not stated),31.1 µM (active)
2,COCCn1c(N)c(C(=O)Nc2sc3c(c2C(=O)OC)CCCC3)c2nc3ccccc3nc21,> 150 µM (not active)

# Test system: Streptococcus sp. 'group A'
# Assay: Streptococcus pyogenes SK(-)GAS viability under kanamycin – luminescence, BacTiterGlo, confirmation, counter-screen for streptokinase expression inhibitor project, dose response (AID 1900)
# Assay type: functional, organism-based
# Settings: not given
row,Structure (SMILES),EC50
1,OC(COc1cccc2ccccc12)CN1CCN(c2ccc(Cl)cc2)CC1 (configuration not stated),19.7 µM (active)
2,COCCn1c(N)c(C(=O)Nc2sc3c(c2C(=O)OC)CCCC3)c2nc3ccccc3nc21,1.83 µM (active)

# Test system: Streptococcus
# Assay: GAS UMAA2166 growth inhibition – luminescence, BacTiterGlo, counter-screen for streptokinase expression inhibitor project, dose response (AID 1915);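 also: potency for reduction of bacterial viability or growth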
# Assay type: functional, organism-based
# Settings: not given
row,Structure (SMILES),EC50
1,OC(COc1cccc2ccccc12)CN1CCN(c2ccc(Cl)cc2)CC1 (configuration not stated),34.3 µM (active)
2,COCCn1c(N)c(C(=O)Nc2sc3c(c2C(=O)OC)CCCC3)c2nc3ccccc3nc21,82.4 µM (active)

# Test system: not listed separately
# Assay: Luminescence Cell-Based Dose Retest to Confirm Inhibitors of Cancer Stem Cells. [Related pubchem assays (depositor defined):AID2717, AID2721]
# Assay type: functional, Homo sapiens
# Settings: Homo sapiens
row,Structure (SMILES),AC50
1,OC(COc1cccc2ccccc12)CN1CCN(c2ccc(Cl)cc2)CC1 (configuration not stated),6.37 µM (active)

# Molecular target: T1, Corticotropin-releasing factor receptor 2/Corticotropin-releasing factor-binding protein
# Assay: activators of CRF receptor 2 with binding protein – uHTS hits, confirmation (AID 602473)
# Assay type: functional
# Settings: read-out: EC50_Mean
row,Structure (SMILES),EC50
1,CC1=C(C#N)C(=O)NC(C)(C)C1,> 53 µM (inactive)
2,Cc1onc(-c2ccccc2)c1CNC(=O)CN1C(=O)c2ccccc2C1=O,> 53 µM (inactive)
3,CC12CC3CC(C)(C1)CC(C(=O)NNC(=O)c1ccncc1)(C3)C2,> 53 µM (inactive)
4,Nc1ccccc1SC1CC(=O)N(c2ccc3c(c2)OCO3)C1=O (configuration not stated),> 53 µM (inactive)
5,CC(C)(CSc1ncccn1)NS(=O)(=O)c1ccccc1,> 53 µM (inactive)
6,CCOc1cc2[nH]c(=O)n(Cc3ccccc3)c(=O)c2cc1OCC,> 53 µM (inactive)
7,COc1ccc(N(CC(=O)N/N=C/c2ccc3c(c2)OCO3)S(=O)(=O)c2ccc(NC(C)=O)cc2)cc1,> 53 µM (inactive)
8,CSc1ccccc1C(=O)N1CCN(S(=O)(=O)c2sc(C(=O)O)c(C)c2C(=O)O)CC1,> 53 µM (inactive)
9,O=C(COc1cccc(Cl)c1)Nc1ccc(N2CCOCC2)cc1,> 53 µM (inactive)
10,Cc1c(C(c2ccc(N(C)C)cc2)c2c(C)n(C)n(-c3ccccc3)c2=O)c(=O)n(-c2ccccc2)n1C,> 53 µM (inactive)
11,Cc1ccc2c(cnn2C(=O)CCC(=O)N2CCCCC2)c1,> 53 µM (inactive)
12,COc1ccccc1NS(=O)(=O)c1cc(C(=O)N2CCCC2)ccc1F,> 53 µM (inactive)
13,COCCN1CCC(CO)C1 (configuration not stated),> 53 µM (inactive)
14,Cc1cc(C)cc(NC(=O)c2ccc(N3C(=O)C4CCCCC4C3=O)cc2)c1 (configuration not stated),> 53 µM (inactive)
15,Cc1c(C(=O)Nc2cccc([N+](=O)[O-])c2)sc2ncn(CC(=O)N3CCOCC3)c(=O)c12,> 53 µM (inactive)
16,CC(=O)c1cc(F)c(N2CCN(C(=O)C(C)(C)C)CC2)cc1C,> 53 µM (inactive)
17,Nc1nonc1-n1nnc(C(=O)N/N=C/c2ccccc2)c1CSc1ccc(Cl)cc1,> 53 µM (inactive)
18,O=C(CCN1CCCC1=O)NC1CCCc2c1cnn2-c1ccccc1F (configuration not stated),> 53 µM (inactive)

# Test system: not listed separately
# Assay: Luminescence Cell-Based Dose Confirmation HTS to Identify Inhibitors of Platelet Dense Granule Release. [Related pubchem assays: 1663 (Primary HTS), 1678 (Summary of Project)]
# Assay type: functional
# Settings: not given
row,Structure (SMILES),EC50
1,COc1ccccc1C(=O)COC(=O)/C=C/c1ccccc1,> 112 µM (not active)
2,COCCNC(=O)c1cn(Cc2c(F)cccc2Cl)nn1,> 112 µM (not active)
3,COc1cc(NC(=S)N2CCN(C/C=C/c3ccccc3)CC2)cc(OC)c1,> 112 µM (not active)
4,CCOC(=O)C1=NN(C(=O)Nc2ccc(OC)cc2)C2C(=O)N(c3cccc(C(F)(F)F)c3)C(=O)C12 (configuration not stated),27.2 µM (active)
5,c1ccc2[nH]c(-c3nc4ccccc4[nH]3)nc2c1,3.25 µM (active)
6,Oc1nc2cc(NC(S)=Nc3ccccc3Cl)ccc2[nH]1,> 112 µM (not active)
7,O=C1COc2ccc(C(=O)COC(=O)c3cc(S(=O)(=O)N4CCOCC4)ccc3F)cc2N1,22.9 µM (active)
8,CCN=C(S)NNC(=O)c1cc(-c2cccc(OC)c2)nc2ccccc12,7.86 µM (active)
9,Cc1cc(NC(=O)Cn2nc(C)c([N+](=O)[O-])c2C)no1,> 112 µM (not active)
10,COc1cc(C2c3c(-c4cc(Cl)c(C)cc4O)n[nH]c3C(=O)N2Cc2cccnc2)ccc1O (configuration not stated),85 µM (active)
11,CC1CC(OC(=O)CN2CCCCC2)CC(C)(C)C1 (configuration not stated),> 112 µM (not active)
12,COc1ccc(Cl)cc1NC(=O)c1cc(S(=O)(=O)N2CCCC2)cn1C,> 112 µM (not active)
13,Cc1ccc(NS(=O)(=O)c2cccc(C(=O)N3CCCCCCC3)c2)cc1,> 112 µM (not active)
